Test results reported in patent publication US20230000875A1, “MULTIPLE UNIT PELLET SYSTEM TABLET COMPRISING RIBOFLAVIN” (DSM IP ASSETS B.V., priority 2019, published 2023).

Assay: Absorption of the solution of coated or uncoated riboflavin in water (coloration/release)
Type: physicochemical
Settings: amount containing 10 mg riboflavin dissolved in 1000 ml water for 15 min; measured at 545 nm, spectrophotometer
Protocol: 80 g granulated Riboflavin was successively coated with 9% Na-alginate, 1% Ca-Chloride and 25% shellac using a WFP-mini fluid bed processor (DMR) in Wurster configuration. 89 g coated product with particle size between 250 and 1000 μm was obtained. Coating material was 35% of the particle mass, riboflavin content 50%. 20 mg of coated powder (containing 10 mg of Riboflavin) was dissolved in 1000 ml water for 15 min. Absorption of the solution was measured at 545 nm using a spectrophotometer (Genesys 20, thermo Scientific). Absorption of the solution was 0.065.
10 mg of riboflavin powder was dissolved in 1000 ml water for 15 min. Absorption of the solution was measured at 545 nm using a spectrophotometer (Genesys 20, thermo Scientific). Absorption of the solution was 0.386.
80 g granulated Riboflavin was coated with 60 g Eudragit FS30D and 10 g PIasACRYL T20 using a WFP-mini fluid bed processor (DMR) in Wurster configuration. 71 g coated product with particle size between 250 and 1000 μm was obtained. Coating material was ca. 20% of the particle mass, riboflavin content was 60%. 16.6 mg of coated powder (containing 10 mg of Riboflavin) was dissolved in 1000 ml water for 15 min. Absorption of the solution was measured at 545 nm using a spectrophotometer (Genesys 20, thermo Scientific). Absorption of the solution was 0.087.

Compound: Cc1cc2nc3c(=O)[nH]c(=O)nc-3n(C[C@H](O)[C@H](O)[C@H](O)CO)c2cc1C [Comparison Example 2, riboflavin]
- Absorption of the solution: 0.386
